Assay results published in publication PMC6694100, “The complex of ferric-enterobactin with its transporter from Pseudomonas aeruginosa suggests a two-site model” (Nature Communications, 2019).
Several values for one entry are separate records, joined by “and”; a condition that tells them apart may be missing. Equal values may be shown once. Entries after “also recorded” stand apart in the source; their conditions may differ. Read-outs that look alike come from different tables or passages of the source.

Key:
[1] = biological target: T1, PfeA R480A-Q482A double mutant (Pseudomonas aeruginosa, UniProt Q05098, Q507A/R505A); experiment: isothermal titration calorimetry, PfeA R480A-Q482A; type: binding
T1 construct: His7 tag with TEV protease site (N, cleaved yes); made in house; host or cells: E. coli C43 (DE3)
Description: (§1) The sites have different affinities for the ligand, one with high affinity and highly favourable enthalpy and the second with lower affinity and unfavourable enthalpy. Although the biphasic nature of the isotherm was reproducible, the numerical values varied. For K1, the binding constant was 20 to 100 nM; for K2 […]. […] The weaker binding at the […] site is consistent with the higher B-factor of the Fe^3+-enterobactin molecule observed in the complex crystal structures.
(§2) Affinities of PfeA wild-type and mutants for Fe^3+-enterobactin were measured by isothermal titration calorimetry using a VP-ITC instrument (GE Healthcare) at 25 °C. Titrations were performed using 57 × 5 μl injections of Fe^3+-enterobactin (70–55 μM) into 10 μM protein. The heats of dilution measured from injection of the ligands into the buffer were subtracted, and titration curves were fitted using AFFINImeter software with a two-site binding model. Concentrations of Fe^3+-enterobactin solutions were verified with UV/vis spectrophotometry using a published molar extinction coefficient of ε495 = 5600 M^−1 cm^−1. […] Reverse titration has been also performed (PfeA into Fe^3+-enterobactin), but data suffer from high heats of dilution in the beginning of the blank titration of PfeA into the buffer giving estimates of K1 = 95 nM and K2 = 4.5 μM for the wild-type.

PfeA Q482A mutant = biological target: T2, PfeA Q482A mutant (Pseudomonas aeruginosa, UniProt Q05098, Q507A); experiment: isothermal titration calorimetry, PfeA Q482A; type: binding
T2 construct: His7 tag with TEV protease site (N, cleaved yes); made in house; host or cells: E. coli C43 (DE3)
Description: as §1, §2

[2] = test system: ∆pfeA cells with no plasmid; experiment: 55Fe-enterobactin binding and uptake assay, ∆pfeA; type: cell-based, Pseudomonas aeruginosa; conditions: for 55Fe count, Comptage / 55Fe-enterobactin bound/taken up: replicates, Figure 6b-c, listed as 55Fe-enterobactin
Description: (§3) Fig. 6 Effects of PfeA mutation in vivo. a Analysis of changes in the transcription of pfeA gene. PAO1 strain, its corresponding deletion mutant ∆pfeA and deletion mutants carrying the expression plasmid of PfeA wild-type (∆pfeA(pMMBpfeA) or the R480A-Q482A mutant (∆pfeA(pMMBpfeAR480AQ482A)) were grown in CAA medium supplemented with 10 µM enterobactin. The data were normalised relative to the reference gene uvrD, and are representative of three independent experiments performed in triplicate (n = 3). The results are given as a ratio between the values obtained for ∆pfeA, ∆pfeA(pMMBpfeA) and ∆pfeA(pMMBpfeAR480AQ482A) over those obtained for the PAO1 strain. b ^55Fe-enterobactin binding at the bacterial surface. Cells were grown as in panel a, and were incubated for 15 min with 200 µM CCCP before initiation of transport assays by the addition of 500 nM ^55Fe-enterobactin. After 30 min incubation, the radioactivity accumulated in the bacteria was counted. The results are expressed as pmol of ^55Fe-enterobactin bound per ml of cells at an OD600 of 1. The experiments have been repeated three times. c ^55Fe-enterobactin binding and uptake. Cells were grown as in panel a, and were incubated with or without 200 µM CCCP before initiation of transport assays by the addition of 500 nM ^55Fe-enterobactin. After 30 min incubations, the radioactivity accumulated in the bacteria was counted. The results are expressed as pmol of ^55Fe-enterobactin bound and transported per ml of cells at an OD600 of 1. The experiments have been repeated three times
(§4) The complex was prepared at ^55Fe concentrations of 50 μM, with a siderophore:iron (mol:mol) ratio of 20:1. P. aeruginosa strains were first grown overnight at 30 °C in LB broth, and were then washed, resuspended and cultured overnight at 30 °C in iron-deficient CAA medium (casamino acid medium, composition: 5 g.l^−1 low-iron CAA (Difco), 1.46 g.l^−1 K2HPO4 3H2O, 0.25 g.l^−1 MgSO4 7H2O) and in the presence of 10 µM enterobactin to induce the expression of PfeA. CAA is a highly iron-restricted medium with iron concentrations of 20 nM[59]. Afterwards bacteria were washed with 50 mM Tris-HCl pH 8.0, and diluted to an OD600 of 1. Cells solutions were divided in two, one batch being treated with 200 μM CCCP. This compound collapses the proton-motive force across the bacterial cell membranes, inhibiting TonB-dependent iron uptake. Binding and transport assays were initiated by adding 500 nM ^55Fe-enterobactin to the bacterial solutions treated or not with CCCP. After 30 min of incubations, cells were centrifuged, and the radioactivity associated to the bacteria was monitored in the cell pellets. For the cells treated with CCCP, the radioactivity in the cell pellets corresponds to the binding of ^55Fe-enterobactin to P. aeruginosa cell surface, since no uptake occurs. In the absence of CCCP, the radioactivity associated to the cells corresponds to ^55Fe-enterobactin binding to the cell surface and the uptake into the bacteria.

PfeA wild-type = biological target: T3, PfeA wild-type (Pseudomonas aeruginosa, UniProt Q05098); experiment: isothermal titration calorimetry, PfeA wild-type; type: binding; conditions: ITC reverse titration (PfeA into Fe^3+-enterobactin), estimate
T3 construct: His7 tag with TEV protease site (N, cleaved yes); made in house; host or cells: E. coli C43 (DE3)
Description: as §1, §2

[3] = biological target: T1, PfeA R480A-Q482A double mutant; experiment: coelution on S200 size-exclusion column, PfeA R480A-Q482A; type: binding
Description: (§5) Proteins were incubated with the Fe^3+-siderophore before being loaded on a S200 size-exclusion column.

PfeA G324V mutant = biological target: T4, PfeA G324V mutant (Pseudomonas aeruginosa, UniProt Q05098, G349V); experiment: isothermal titration calorimetry, PfeA G324V; type: binding
T4 construct: His7 tag with TEV protease site (N, cleaved yes); made in house; host or cells: E. coli C43 (DE3)
Description: as §1, §2

PfeA = biological target: T5, PfeA (Pseudomonas aeruginosa, UniProt Q05098); experiment: coelution on S200 size-exclusion column, PfeA wild-type; type: binding
T5 construct: His7 tag with TEV protease site (N, cleaved yes); made in house; host or cells: E. coli C43 (DE3)
Description: as §5
Crystals of PfeA appeared at 20 °C after few days by mixing 2 μl of protein solution (10 mg.ml^−1) with 1 μl of reservoir solution containing 11% polyethylene glycol 8000, 0.05 M ADA pH 6.5 and 0.1 M magnesium acetate. Crystals were frozen with the same solution containing 25% ethylene glycol. Enterobactin structure complexes were obtained by soaking apo crystals for few hours with mother liquor containing 5 mM Fe^3+-enterobactin before cryoprotection. For the others complexes, crystals were cross-linked by diffusion of 25% glutaraldehyde prior the soaking. Co-crystallisation attempts have been performed by incubating the protein for 1 h at room temperature with the ligand before been loaded on a S200 16/60 column and concentrated for setting up the crystallisation plates. No crystals have been obtained by co-crystallisation. Crystallisation conditions of the mutants were the same as for the wild-type.

[4] = test system: ∆pfeA(pMMBpfeA) cells (native PfeA); experiment: 55Fe-enterobactin binding and uptake assay, ∆pfeA(pMMBpfeA); type: cell-based, Pseudomonas aeruginosa; conditions: for Comptage (dpm): replicate counts; for Comptage (dpm) / 55Fe incorporated, pmol/ml/DO600: Supplementary Fig 10, listed as 55Fe-enterobactin; for 55Fe incorporated, pmol/ml/DO600: replicates
Description: as §3, §4

T1 sequence (Q05098 26-746 R505A/Q507A): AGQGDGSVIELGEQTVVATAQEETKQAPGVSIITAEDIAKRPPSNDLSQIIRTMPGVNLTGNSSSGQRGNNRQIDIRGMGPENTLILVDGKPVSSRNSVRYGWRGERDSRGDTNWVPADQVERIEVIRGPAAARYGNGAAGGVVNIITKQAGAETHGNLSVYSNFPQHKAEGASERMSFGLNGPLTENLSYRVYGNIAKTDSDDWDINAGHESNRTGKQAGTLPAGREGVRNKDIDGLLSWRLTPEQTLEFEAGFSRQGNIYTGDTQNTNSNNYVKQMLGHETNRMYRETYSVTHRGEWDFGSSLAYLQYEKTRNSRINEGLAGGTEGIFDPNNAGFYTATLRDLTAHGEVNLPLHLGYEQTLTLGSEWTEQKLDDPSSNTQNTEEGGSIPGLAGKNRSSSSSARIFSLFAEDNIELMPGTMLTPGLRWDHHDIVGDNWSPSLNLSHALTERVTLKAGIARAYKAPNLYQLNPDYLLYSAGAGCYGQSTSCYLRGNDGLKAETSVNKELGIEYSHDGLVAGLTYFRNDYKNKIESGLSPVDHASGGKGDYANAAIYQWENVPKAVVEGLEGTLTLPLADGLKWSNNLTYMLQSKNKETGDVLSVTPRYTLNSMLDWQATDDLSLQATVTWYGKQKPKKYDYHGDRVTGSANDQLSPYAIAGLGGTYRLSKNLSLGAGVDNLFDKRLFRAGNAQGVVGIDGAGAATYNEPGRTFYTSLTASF
T3 sequence (Q05098 26-746): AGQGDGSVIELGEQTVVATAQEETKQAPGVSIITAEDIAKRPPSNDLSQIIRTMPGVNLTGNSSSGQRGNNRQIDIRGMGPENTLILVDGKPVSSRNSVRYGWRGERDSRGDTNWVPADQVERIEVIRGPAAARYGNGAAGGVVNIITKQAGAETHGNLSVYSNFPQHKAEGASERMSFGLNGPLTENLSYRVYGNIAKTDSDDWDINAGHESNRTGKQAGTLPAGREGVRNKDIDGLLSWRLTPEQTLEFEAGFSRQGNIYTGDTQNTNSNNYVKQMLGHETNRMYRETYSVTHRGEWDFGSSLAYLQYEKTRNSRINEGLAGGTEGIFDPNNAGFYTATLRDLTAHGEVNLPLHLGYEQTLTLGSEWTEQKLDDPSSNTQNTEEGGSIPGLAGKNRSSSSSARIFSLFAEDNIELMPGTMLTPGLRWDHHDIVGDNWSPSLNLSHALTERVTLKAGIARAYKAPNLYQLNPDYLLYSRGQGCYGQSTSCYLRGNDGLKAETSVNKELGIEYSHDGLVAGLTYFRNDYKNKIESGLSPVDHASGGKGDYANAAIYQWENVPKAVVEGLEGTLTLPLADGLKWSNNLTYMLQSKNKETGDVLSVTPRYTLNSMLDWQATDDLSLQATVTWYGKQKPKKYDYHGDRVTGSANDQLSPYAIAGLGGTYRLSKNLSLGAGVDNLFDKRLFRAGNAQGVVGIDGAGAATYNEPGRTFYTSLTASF
T2 sequence (Q05098 26-746 Q507A): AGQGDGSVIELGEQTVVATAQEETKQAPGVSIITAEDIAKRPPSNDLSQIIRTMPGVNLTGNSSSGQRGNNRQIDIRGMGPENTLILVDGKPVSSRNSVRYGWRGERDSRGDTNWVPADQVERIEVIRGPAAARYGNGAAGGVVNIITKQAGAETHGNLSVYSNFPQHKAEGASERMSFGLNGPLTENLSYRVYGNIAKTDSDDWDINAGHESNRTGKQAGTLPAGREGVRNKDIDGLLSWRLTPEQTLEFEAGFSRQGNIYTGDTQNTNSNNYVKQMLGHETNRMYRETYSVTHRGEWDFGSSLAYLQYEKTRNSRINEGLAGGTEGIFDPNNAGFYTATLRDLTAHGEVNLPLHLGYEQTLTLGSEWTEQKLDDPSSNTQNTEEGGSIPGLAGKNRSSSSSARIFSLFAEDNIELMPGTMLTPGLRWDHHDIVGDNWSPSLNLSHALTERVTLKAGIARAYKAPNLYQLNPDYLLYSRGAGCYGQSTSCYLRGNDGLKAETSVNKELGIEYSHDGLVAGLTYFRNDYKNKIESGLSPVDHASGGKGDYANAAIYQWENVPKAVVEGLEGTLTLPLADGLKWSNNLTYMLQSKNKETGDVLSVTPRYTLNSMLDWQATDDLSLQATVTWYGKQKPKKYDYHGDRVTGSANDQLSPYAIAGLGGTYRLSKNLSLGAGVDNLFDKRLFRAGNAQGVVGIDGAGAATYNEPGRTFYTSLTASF
T4 sequence (Q05098 26-746 G349V): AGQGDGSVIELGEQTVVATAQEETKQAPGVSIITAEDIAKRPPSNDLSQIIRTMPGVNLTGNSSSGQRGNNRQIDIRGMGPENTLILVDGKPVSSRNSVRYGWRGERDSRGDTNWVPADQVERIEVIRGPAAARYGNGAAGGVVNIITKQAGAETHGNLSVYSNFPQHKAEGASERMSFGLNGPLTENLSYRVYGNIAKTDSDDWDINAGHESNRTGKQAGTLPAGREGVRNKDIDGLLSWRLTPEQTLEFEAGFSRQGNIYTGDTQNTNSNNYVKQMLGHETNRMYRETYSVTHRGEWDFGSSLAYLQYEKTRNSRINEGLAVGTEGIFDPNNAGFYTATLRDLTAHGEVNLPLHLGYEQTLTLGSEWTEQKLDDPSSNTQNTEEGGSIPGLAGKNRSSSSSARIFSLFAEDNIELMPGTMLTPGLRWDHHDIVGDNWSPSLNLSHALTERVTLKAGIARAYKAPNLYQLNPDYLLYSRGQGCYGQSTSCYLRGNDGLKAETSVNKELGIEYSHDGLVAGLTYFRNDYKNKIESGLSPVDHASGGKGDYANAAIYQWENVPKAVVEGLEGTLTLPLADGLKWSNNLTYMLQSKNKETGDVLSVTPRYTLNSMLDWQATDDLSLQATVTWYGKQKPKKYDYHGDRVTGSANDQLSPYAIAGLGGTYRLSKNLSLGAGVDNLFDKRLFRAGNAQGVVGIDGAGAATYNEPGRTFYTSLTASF
T5 sequence (Q05098 26-746): as the sequence (Q05098 26-746) above

With `O=C(N[C@H]1COC(=O)[C@@H](NC(=O)c2cccc([O-])c2[O-])COC(=O)[C@@H](NC(=O)c2cccc([O-])c2[O-])COC1=O)c1cccc([O-])c1[O-].[Fe+3]` [Fe^3+-enterobactin] the “binding by ITC” value [1] was “no binding was detected; also recorded: did not show any detectable binding”, the “binding by ITC” value (PfeA Q482A mutant) was “biphasic isotherms, but with much reduced heat output and smaller K1 values; also recorded: weakened (but detectable) binding” and the “^55Fe-siderophore binding at the bacterial surface” value ([2]; CCCP treated cells (200 µM), 500 nM ^55Fe-enterobactin, 30 min) was “same low level of binding as wild-type PAO1”. The “55Fe count, Comptage” value ([2]; ∆pfeA + CCCP) was 1560 dpm and 1268 dpm and 1340 dpm, the 55Fe-enterobactin bound/taken up ([2]; ∆pfeA + CCCP) was 20.0147 pmol/ml/DO600 and 16.2683 pmol/ml/DO600 and 17.1921 pmol/ml/DO600 and the “55Fe count, Comptage” value ([2]; ∆pfeA, no CCCP) was 3228 dpm and 4151 dpm and 2977 dpm. The 55Fe-enterobactin bound/taken up ([2]; ∆pfeA, no CCCP) was 41.415 pmol/ml/DO600 and 53.257 pmol/ml/DO600 and 38.1947 pmol/ml/DO600, the Kd (PfeA wild-type; read-out: K1, reverse titration) was 95 nM and the Kd (PfeA wild-type; read-out: K2, reverse titration) was 4500 nM. For the same molecule, the “coelution with protein on size-exclusion column” value [3] was “does not coelute”, the “binding by ITC” value (PfeA G324V mutant) was “no binding was detected; also recorded: did not show any detectable binding” and the “coelution with protein on size-exclusion column” value (PfeA) was “coelute with PfeA”. For the same molecule, the “^55Fe-siderophore binding at the bacterial surface” value ([4]; CCCP treated cells (200 µM), 500 nM ^55Fe-enterobactin, 30 min, compared with wild-type PAO1) was “much higher levels of binding”, the “^55Fe-enterobactin binding and uptake” value ([4]; cells not treated with CCCP, 500 nM ^55Fe-enterobactin, 30 min) was “less efficient” and the “Comptage (dpm)” value ([4]; ∆pfeA (pMMBpfeA) (no CCCP)) was 9474 dpm and 9114 dpm and 9574 dpm. The “55Fe incorporated, pmol/ml/DO600” value ([4]; ∆pfeA (pMMBpfeA) (no CCCP)) was 121.551 pmol/ml/DO600 and 116.932 pmol/ml/DO600 and 122.834 pmol/ml/DO600, the “Comptage (dpm)” value ([4]; ∆pfeA (pMMBpfeA) + CCCP) was 6090 dpm and 6603 dpm and 5856 dpm and the “55Fe incorporated, pmol/ml/DO600” value ([4]; ∆pfeA (pMMBpfeA) + CCCP) was 78.1342 pmol/ml/DO600 and 84.716 pmol/ml/DO600 and 75.132 pmol/ml/DO600.
